Assay results from patent US11254649B2, “Crystalline fumarate salt of (S)-[3,4-difluoro-2-(2-fluoro-4-iodophenylamino)phenyl] [3-hydroxy-3-(piperidin-2-yl) azetidin-1-yl]-methanone” (Exelixis, Inc., priority 2015, dated 2022).
Entries after “also recorded” stand apart in the source; their conditions may differ. Structures can show the parent of a compound that is named as a salt.

Assays:
Type in all cases: physicochemical
[1] = Intrinsic dissolution rate (USP <1088>); conditions: for Intrinsic Dissolution Rate: pellet 0.5 cm^2, 0.05M Acetate Buffer pH = 4.5, 37 C., 100 RPM, UV at 278 nm
Source text: For each intrinsic dissolution measurement, a pellet was produced from the crystalline Form A or the amorphous form sample using an applied load of approximately 15 kN into a flat disk (surface area=0.5 cm^2). After compaction, each pellet was checked by XRPD to confirm that no polymorphic transformation had occurred during the pelleting process. [table] Batches of Form A and the amorphous form (from freeze-drying) were used to determine the intrinsic dissolution rate of both solid forms. Intrinsic dissolution allows the characterization of different crystal forms by exposing a constant surface area to the dissolution medium.

Water solubility = conditions: at 25° C.
[2] = Hygroscopicity by dynamic moisture sorption/desorption (DVS); conditions: 25° C.; for reversible weight gain or loss: between 0% RH and 90% RH; for conversion during dynamic vapor sorption experiments: time scale of standard DVS experiments, 0-90% RH; for hygroscopicity classification: weight increase 0% RH to 90% RH
Protocol: Moisture sorption/desorption data were collected on a DVS-1/DVS-HT/DVS-intrinsic (SMS Surface Measurements Systems) moisture balance system. The sorption/desorption isotherms were measured stepwise in a range of 0% RH (relative humidity) to 90% RH at 25° C. A weight change of <0.002 mg/min was chosen as a criterion to switch to the next level of RH (with a maximum equilibration time of 24 hours, if the weight criterion was not met). The data were corrected for the initial moisture content of the samples; that is, the weight after drying the sample at 0% RH was taken as the zero point. The hygroscopicity of a given substance is characterized by the increase in mass when the RH was raised from 0% RH to 90% RH as given in Table 7. [table]

[3] = Storage stability at 25° C/0% RH and 25° C/90% RH; conditions: 25° C/0% relative humidity (RH) and 25° C/90% RH
[4] = Polymorphism screening / solid form stability and conversion; conditions: for thermodynamic stability / conversion of solid form: polymorphism screening, approximately 3000 crystallization experiments
Protocol: The amorphous form is non-crystalline and hygroscopic. […] In approximately 3000 crystallization experiments performed during polymorphism screenings, no additional polymorphic form was observed. Based on DSC measurements as well as temperature-controlled XRPD, no conversion of the polymorphic form is observable under heating until melting occurs. […] DSC thermograms were recorded using a Mettler-Toledo instrument (DSC820/821e/1; FRS05 sensor). Approximately 2-6 mg of the sample were placed in aluminum pans and sealed with aluminum lids. Lids were automatically pierced prior to heating. Generally, samples under nitrogen were heated at a rate of 10 K/min to a maximum of 250° C.

[5] = listed as crystalline fumarate salt of Compound I

Row | Intrinsic Dissolution Rate [1] | solubility (Water solubility) | reversible weight gain or loss [2] | conversion during dynamic vapor sorption experiments [2] | hygroscopicity classification [2, 5] | change in assay, purity, moisture and dissolution [3] | thermal stability by DSC ([4]; DSC) | thermodynamic stability / conversion of solid form [4] | thermodynamic stability / conversion of solid form [4, 5] | intrinsic dissolution rate relative to crystalline Form A ([1]; amorphous form vs Form A) | reversible weight gain or loss ([2]; listed as the amorphous from) | hygroscopicity classification ([2]; listed as The amorphous form) | hygroscopicity classification ([2]; listed as the amorphous from) | conversion in slurry experiment ([4]; 2-propanol/water 88:12, 20° C.) | Compound | hygroscopicity classification [2] | thermodynamic stability / conversion of solid form ([4]; listed as The amorphous form)
1 | 0.0756 mg*cm−2*min−1 | 1600 µg/mL | 0.1% | no conversion was observed | non-hygroscopic | no change | stable up to the melting point of 239 °C | thermodynamically stable form | thermodynamically stable | – | – | – | – | – | O=C(c1ccc(F)c(F)c1Nc1ccc(I)cc1F)N1CC(O)([C@@H]2CCCCN2)C1 [Form A, crystalline fumarate salt of (S)-[3,4-difluoro-2-(2-fluoro-4-iodophenylamino)phenyl] [3-hydroxy-3-(piperidin-2-yl)azetidin-1-yl]-methanone] | non-hygroscopic; also recorded: nonhygroscopic | –
2 | 2.6996 mg*cm−2*min−1 | – | – | no conversion was observed | – | – | – | converts to crystalline Form A | – | approximately 35 times | 12.1% | hygroscopic | hygroscopic | converted rapidly into Form A | O=C(c1ccc(F)c(F)c1Nc1ccc(I)cc1F)N1CC(O)([C@@H]2CCCCN2)C1 [the amorphous form] | hygroscopic | convert to Form A by heating and by solvent mediated phase transition in water
